Results reported in ChEMBL document CHEMBL1144371, “Design, synthesis, and biological evaluation of novel 4-hydroxypyrone derivatives as HIV-1 protease inhibitors” (Bioorg Med Chem Lett, 2005).
pEC50, pIC50: −log10 of the molar value.

Experiments:
[1] = target: T1, Human immunodeficiency virus type 1 protease (Human immunodeficiency virus 1, UniProt Q72874); assay: Inhibitory concentration against human immunodeficiency virus 1 protease in MT-4 cells; format: cell-based, MT4
CCRF-CEM [2] = assay: Effective concentration required to protect CEM cells from […] immunodeficiency virus (SIV) infection; format: functional, cell-based
CCRF-CEM [3] = assay: Ratio of toxic concentration (TC50) to the effective concentration (EC50) (Therapeutic Index) in CEM cells; format: functional, Homo sapiens
[4] = target: T1, Human immunodeficiency virus type 1 protease; assay: Effective concentration required to inhibit human immunodeficiency virus 1 protease in MT-4 cells; format: cell-based, MT4

SMILES | pIC50 [1] | pEC50 (CCRF-CEM [2]) | TI (CCRF-CEM [3]) | pEC50 [4]
CCCC1(CCc2ccccc2)CC(=O)C(C(CC)c2ccccc2)=C(O)O1 (stereo not drawn) | 7.46 | – | – | –
CCCC1(Cc2cccc3ccccc23)CC(=O)C(Sc2ccccc2C)=C(O)O1 (stereo not drawn) | – | 5.42 | >26 | –
CCCC1(CCc2ccccc2)CC(=O)C(Sc2cc(C)ccc2C)=C(O)O1 (stereo not drawn) | – | 5.37 | >23 | –
O=C1CC2(CCCCC2)OC(O)=C1Sc1ccccc1 | – | 4.91 | 4 | –
CCCC1(Cc2cccc3ccccc23)CC(=O)C(Sc2ccccc2)=C(O)O1 (stereo not drawn) | – | 5.37 | 13 | –
CCCC1(CCc2ccccc2)CC(=O)C(Sc2ccccc2C)=C(O)O1 (stereo not drawn) | – | 5.43 | >27 | –
CCCC1(Cc2cccc3ccccc23)CC(=O)C(Sc2ccccc2CC)=C(O)O1 (stereo not drawn) | – | 5.77 | 46 | 5.77
CCCC1(CCc2ccccc2)CC(=O)C(Sc2ccccc2CC)=C(O)O1 (stereo not drawn) | – | 5.39 | >24 | –
Cc1ccc(C)c(SC2=C(O)OC3(CCC(C(C)(C)C)CC3)CC2=O)c1 (stereo not drawn) | – | 5.08 | >12 | –
CCCC1(Cc2ccc3ccccc3c2)CC(=O)C(Sc2ccccc2CC)=C(O)O1 (stereo not drawn) | – | 5.74 | 34 | –
CCCC1(Cc2cccc3ccccc23)CC(=O)C(Sc2cc(C)ccc2C)=C(O)O1 (stereo not drawn) | – | 5.34 | 11 | –
Cc1ccccc1SC1=C(O)OC2(CCC(C(C)(C)C)CC2)CC1=O (stereo not drawn) | – | 5.17 | 8 | –
CCCC1(CCc2ccccc2)CC(=O)C(Sc2ccccc2)=C(O)O1 (stereo not drawn) | – | 5.34 | >22 | –
Cc1ccc(C)c(SC2=C(O)OC3(CCCCC3)CC2=O)c1 | – | 5.44 | >28 | –
CC(C)(C)C1CCC2(CC1)CC(=O)C(Sc1ccccc1)=C(O)O2 (stereo not drawn) | – | < 5.30 | 1 | –
CCc1ccccc1SC1=C(O)OC2(CCCCC2)CC1=O | – | 5.41 | >26 | –
O=C1CC(COc2ccccc2)(c2ccccc2)OC(O)=C1Sc1ccccc1 (stereo not drawn) | – | 4.89 | 2 | –
Cc1ccccc1SC1=C(O)OC2(CCCCC2)CC1=O | – | 5.48 | >30 | –
CCc1ccccc1SC1=C(O)OC2(CCC(C(C)(C)C)CC2)CC1=O (stereo not drawn) | – | 5.09 | 3 | –
CCCC1(Cc2ccc3ccccc3c2)CC(=O)C(Sc2ccccc2)=C(O)O1 (stereo not drawn) | – | 5.49 | 10 | –
Cc1ccc(C)c(SC2=C(O)OC(COc3ccccc3)(c3ccccc3)CC2=O)c1 (stereo not drawn) | – | 5.04 | 5 | –
Cc1ccccc1SC1=C(O)OC(COc2ccccc2)(c2ccccc2)CC1=O (stereo not drawn) | – | 5.09 | >12 | –
Cc1ccc(C(C)(C)C)c(SC2=C(O)OC(CCc3ccccc3)(C(C)C)CC2=O)c1 (stereo not drawn) | 8.96 | – | – | 4.82
CCCC1(Cc2ccc3ccccc3c2)CC(=O)C(Sc2ccccc2C)=C(O)O1 (stereo not drawn) | – | 5.70 | 17 | –
CCc1ccccc1SC1=C(O)OC(COc2ccccc2)(c2ccccc2)CC1=O (stereo not drawn) | – | 5.25 | 8 | –
CCCC1(Cc2ccc3ccccc3c2)CC(=O)C(Sc2cc(C)ccc2C)=C(O)O1 (stereo not drawn) | – | 5.40 | 10 | –
CCC(c1ccccc1)c1c(O)c2ccccc2oc1=O (stereo not drawn) [PHENPROCOUMON] | 6.00 | – | – | –
